# Data reported in ChEMBL document CHEMBL4028801, “A multifactorial approach to hepatobiliary transporter assessment enables improved therapeutic compound development” (Toxicol Sci, 2013).
# How the values were obtained:
# [1] = AUC in human at 400 to 600 mg, po QD after 24 hrs; format: ADME, organism-based; settings: in vivo
# [2] = Drug concentration at steady state in human at 400 to 600 mg, po QD after 24 hrs; format: ADME, organism-based; settings: in vivo, read-out: Css
# [3] = molecular target: ATP-binding cassette sub-family C member 3 (Homo sapiens, UniProt O15438); assay: Inhibition of human MRP3 overexpressed in Sf9 insect cell membrane vesicles assessed as uptake of [3H]-estradiol-17beta-D-glucuronide in presence of ATP and GSH measured after 10 mins by membrane vesicle transport assay; format: ADME, cell-based
# [4] = molecular target: T1, ATP-binding cassette sub-family C member 4 (Homo sapiens, UniProt O15439); assay: Inhibition of human MRP4 overexpressed in Sf9 cell membrane vesicles assessed as uptake of [3H]-estradiol-17beta-D-glucuronide in presence of ATP and GSH measured after 20 mins by membrane vesicle transport assay; format: ADME, cell-based
# T1 sequence (O15439 whole entry): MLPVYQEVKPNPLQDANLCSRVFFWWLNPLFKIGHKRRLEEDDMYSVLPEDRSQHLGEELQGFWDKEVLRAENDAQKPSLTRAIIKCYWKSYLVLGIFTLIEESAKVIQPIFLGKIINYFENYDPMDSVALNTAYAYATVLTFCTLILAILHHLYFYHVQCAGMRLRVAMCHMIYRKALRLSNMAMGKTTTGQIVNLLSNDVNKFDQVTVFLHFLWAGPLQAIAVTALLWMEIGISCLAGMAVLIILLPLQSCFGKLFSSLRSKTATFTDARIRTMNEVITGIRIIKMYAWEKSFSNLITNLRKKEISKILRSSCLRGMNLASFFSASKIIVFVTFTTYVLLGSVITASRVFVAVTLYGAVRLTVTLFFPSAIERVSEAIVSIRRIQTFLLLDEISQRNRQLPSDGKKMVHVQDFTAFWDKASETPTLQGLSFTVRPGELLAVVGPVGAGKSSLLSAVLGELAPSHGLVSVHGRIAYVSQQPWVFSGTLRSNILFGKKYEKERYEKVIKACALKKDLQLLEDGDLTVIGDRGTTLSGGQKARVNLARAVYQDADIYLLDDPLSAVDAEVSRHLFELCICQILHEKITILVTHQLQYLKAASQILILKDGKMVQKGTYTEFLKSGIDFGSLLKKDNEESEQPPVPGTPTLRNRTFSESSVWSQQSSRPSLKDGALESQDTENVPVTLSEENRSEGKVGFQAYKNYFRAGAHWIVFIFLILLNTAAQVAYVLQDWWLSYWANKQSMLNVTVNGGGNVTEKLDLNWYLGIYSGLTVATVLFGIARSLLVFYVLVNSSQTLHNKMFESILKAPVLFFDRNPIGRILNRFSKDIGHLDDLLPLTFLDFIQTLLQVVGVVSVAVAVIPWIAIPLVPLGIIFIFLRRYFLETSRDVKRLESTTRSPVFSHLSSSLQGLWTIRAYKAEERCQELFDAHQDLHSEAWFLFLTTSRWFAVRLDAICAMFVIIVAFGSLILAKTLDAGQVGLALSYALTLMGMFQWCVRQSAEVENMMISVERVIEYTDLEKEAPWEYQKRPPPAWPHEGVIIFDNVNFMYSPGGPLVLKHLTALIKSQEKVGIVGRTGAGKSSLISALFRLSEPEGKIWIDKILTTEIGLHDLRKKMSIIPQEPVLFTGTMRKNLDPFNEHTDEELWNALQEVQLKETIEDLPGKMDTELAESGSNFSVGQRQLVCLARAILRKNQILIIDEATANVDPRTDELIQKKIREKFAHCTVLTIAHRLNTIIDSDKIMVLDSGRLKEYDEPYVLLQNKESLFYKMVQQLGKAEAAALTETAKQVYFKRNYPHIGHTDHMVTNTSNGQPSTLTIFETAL
# [5] = molecular target: ATP-binding cassette sub-family C member 2 (Homo sapiens, UniProt Q92887); assay: Inhibition of human MRP2 overexpressed in Sf9 cell membrane vesicles assessed as uptake of [3H]-estradiol-17beta-D-glucuronide in presence of ATP and GSH measured after 20 mins by membrane vesicle transport assay
# [6] = Ratio of drug concentration at steady state in human at 150 to 300 mg, po QD after 24 hrs to IC50 for human BSEP overexpressed in Sf9 insect cells; format: ADME, organism-based; settings: in vivo
# [7] = Drug concentration at steady state in human at 150 to 300 mg, po QD after 24 hrs; format: ADME, organism-based; settings: in vivo, read-out: Css
# [8] = Ratio of drug concentration at steady state in human at 150 to 300 mg, po QD after 24 hrs to IC50 for human MRP4 overexpressed in Sf9 insect cells; format: ADME, organism-based; settings: in vivo
# [9] = Ratio of drug concentration at steady state in human at 150 to 300 mg, po QD after 24 hrs to IC50 for human MRP3 overexpressed in Sf9 insect cells; format: ADME, organism-based; settings: in vivo
# [10] = AUC in human at 150 to 300 mg, po QD after 24 hrs; format: ADME, organism-based; settings: in vivo
# Bile salt export pump = Bile salt export pump (Homo sapiens, UniProt O95342); assay: Inhibition of human BSEP overexpressed in Sf9 cell membrane vesicles assessed as uptake of [3H]-taurocholate in presence of ATP measured after 15 to 20 mins by membrane vesicle transport assay; format: ADME, cell-based
# [11] = Ratio of drug concentration at steady state in human at 150 to 600 mg, iv QD after 24 hrs to IC50 for human MRP3 overexpressed in Sf9 insect cells; format: ADME, organism-based; settings: in vivo
# [12] = Drug concentration at steady state in human at 150 to 600 mg, iv QD after 24 hrs; format: ADME, organism-based; settings: in vivo, read-out: Css
# [13] = AUC in human at 150 to 600 mg, iv QD after 24 hrs; format: ADME, organism-based; settings: in vivo
# [14] = Ratio of drug concentration at steady state in human at 150 to 600 mg, iv QD after 24 hrs to IC50 for human BSEP overexpressed in Sf9 insect cells; format: ADME, organism-based; settings: in vivo
# [15] = Ratio of drug concentration at steady state in human at 150 to 600 mg, iv QD after 24 hrs to IC50 for human MRP2 overexpressed in Sf9 insect cells; format: ADME, organism-based; settings: in vivo
# [16] = Ratio of drug concentration at steady state in human at 150 to 600 mg, iv QD after 24 hrs to IC50 for human MRP4 overexpressed in Sf9 insect cells; format: ADME, organism-based; settings: in vivo
# [17] = Ratio of drug concentration at steady state in human at 100 to 300 mg, po QD after 24 hrs to IC50 for human BSEP overexpressed in Sf9 insect cells; format: ADME, organism-based; settings: in vivo
# [18] = Ratio of drug concentration at steady state in human at 100 to 300 mg, po QD after 24 hrs to IC50 for human MRP3 overexpressed in Sf9 insect cells; format: ADME, organism-based; settings: in vivo
# [19] = AUC in human at 100 to 300 mg, po QD after 24 hrs; format: ADME, organism-based; settings: in vivo
# [20] = Ratio of drug concentration at steady state in human at 100 to 300 mg, po QD after 24 hrs to IC50 for human MRP2 overexpressed in Sf9 insect cells; format: ADME, organism-based; settings: in vivo
# [21] = Drug concentration at steady state in human at 100 to 300 mg, po QD after 24 hrs; format: ADME, organism-based; settings: in vivo, read-out: Css
# [22] = Ratio of drug concentration at steady state in human at 400 mg, po BID for 5 to 10 days after 12 hrs to IC50 for human MRP4 overexpressed in Sf9 insect cells; format: ADME, organism-based; settings: in vivo
# [23] = Ratio of drug concentration at steady state in human at 400 mg, po BID for 5 to 10 days after 12 hrs to IC50 for human BSEP overexpressed in Sf9 insect cells; format: ADME, organism-based; settings: in vivo
# [24] = Drug concentration at steady state in human at 400 mg, po BID for 5 to 10 days after 12 hrs; format: ADME, organism-based; settings: in vivo, read-out: Css
# [25] = AUC in human at 400 mg, po BID for 5 to 10 days after 12 hrs; format: ADME, organism-based; design: dose 400 mg, time < 12 hr, route oral; settings: in vivo
# Sequence of ATP-binding cassette sub-family C member 2 (Q92887 whole entry): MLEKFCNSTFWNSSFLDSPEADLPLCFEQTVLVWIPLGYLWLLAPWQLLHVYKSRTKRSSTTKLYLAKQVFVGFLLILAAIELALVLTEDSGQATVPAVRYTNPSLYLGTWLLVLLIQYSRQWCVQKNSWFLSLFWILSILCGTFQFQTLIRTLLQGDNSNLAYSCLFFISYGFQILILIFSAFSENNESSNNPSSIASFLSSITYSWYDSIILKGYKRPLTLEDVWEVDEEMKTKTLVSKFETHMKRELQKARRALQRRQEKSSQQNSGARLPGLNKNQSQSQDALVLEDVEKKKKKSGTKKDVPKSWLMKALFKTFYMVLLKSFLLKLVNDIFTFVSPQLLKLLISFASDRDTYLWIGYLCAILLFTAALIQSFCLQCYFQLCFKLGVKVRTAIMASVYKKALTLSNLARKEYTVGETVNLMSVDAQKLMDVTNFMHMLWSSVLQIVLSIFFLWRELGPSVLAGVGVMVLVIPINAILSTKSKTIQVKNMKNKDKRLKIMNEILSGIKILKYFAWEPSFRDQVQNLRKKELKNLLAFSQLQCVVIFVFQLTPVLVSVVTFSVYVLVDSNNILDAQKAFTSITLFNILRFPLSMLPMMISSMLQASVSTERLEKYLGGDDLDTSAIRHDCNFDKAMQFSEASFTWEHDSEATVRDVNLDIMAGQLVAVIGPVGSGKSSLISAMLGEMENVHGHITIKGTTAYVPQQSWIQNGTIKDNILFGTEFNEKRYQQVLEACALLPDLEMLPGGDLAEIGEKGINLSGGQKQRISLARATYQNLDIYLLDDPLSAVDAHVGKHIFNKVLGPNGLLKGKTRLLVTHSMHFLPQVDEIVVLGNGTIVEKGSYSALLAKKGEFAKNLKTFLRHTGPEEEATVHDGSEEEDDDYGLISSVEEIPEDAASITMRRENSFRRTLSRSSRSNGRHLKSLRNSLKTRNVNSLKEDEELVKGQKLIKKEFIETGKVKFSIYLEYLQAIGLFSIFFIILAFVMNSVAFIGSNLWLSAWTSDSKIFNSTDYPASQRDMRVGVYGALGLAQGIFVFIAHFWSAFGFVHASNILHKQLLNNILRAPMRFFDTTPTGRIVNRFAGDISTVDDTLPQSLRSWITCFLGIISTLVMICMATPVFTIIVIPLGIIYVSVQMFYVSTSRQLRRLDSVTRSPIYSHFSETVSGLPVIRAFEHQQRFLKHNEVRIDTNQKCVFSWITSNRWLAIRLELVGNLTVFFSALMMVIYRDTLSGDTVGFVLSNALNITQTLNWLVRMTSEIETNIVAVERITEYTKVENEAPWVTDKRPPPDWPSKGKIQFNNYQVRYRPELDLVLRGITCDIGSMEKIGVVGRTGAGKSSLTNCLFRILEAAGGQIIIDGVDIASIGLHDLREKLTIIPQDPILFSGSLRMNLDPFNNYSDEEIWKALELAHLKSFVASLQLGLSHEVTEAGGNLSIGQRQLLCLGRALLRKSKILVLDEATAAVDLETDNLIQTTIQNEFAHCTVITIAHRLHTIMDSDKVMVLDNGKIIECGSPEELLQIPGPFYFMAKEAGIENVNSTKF
# Sequence of ATP-binding cassette sub-family C member 3 (O15438 whole entry): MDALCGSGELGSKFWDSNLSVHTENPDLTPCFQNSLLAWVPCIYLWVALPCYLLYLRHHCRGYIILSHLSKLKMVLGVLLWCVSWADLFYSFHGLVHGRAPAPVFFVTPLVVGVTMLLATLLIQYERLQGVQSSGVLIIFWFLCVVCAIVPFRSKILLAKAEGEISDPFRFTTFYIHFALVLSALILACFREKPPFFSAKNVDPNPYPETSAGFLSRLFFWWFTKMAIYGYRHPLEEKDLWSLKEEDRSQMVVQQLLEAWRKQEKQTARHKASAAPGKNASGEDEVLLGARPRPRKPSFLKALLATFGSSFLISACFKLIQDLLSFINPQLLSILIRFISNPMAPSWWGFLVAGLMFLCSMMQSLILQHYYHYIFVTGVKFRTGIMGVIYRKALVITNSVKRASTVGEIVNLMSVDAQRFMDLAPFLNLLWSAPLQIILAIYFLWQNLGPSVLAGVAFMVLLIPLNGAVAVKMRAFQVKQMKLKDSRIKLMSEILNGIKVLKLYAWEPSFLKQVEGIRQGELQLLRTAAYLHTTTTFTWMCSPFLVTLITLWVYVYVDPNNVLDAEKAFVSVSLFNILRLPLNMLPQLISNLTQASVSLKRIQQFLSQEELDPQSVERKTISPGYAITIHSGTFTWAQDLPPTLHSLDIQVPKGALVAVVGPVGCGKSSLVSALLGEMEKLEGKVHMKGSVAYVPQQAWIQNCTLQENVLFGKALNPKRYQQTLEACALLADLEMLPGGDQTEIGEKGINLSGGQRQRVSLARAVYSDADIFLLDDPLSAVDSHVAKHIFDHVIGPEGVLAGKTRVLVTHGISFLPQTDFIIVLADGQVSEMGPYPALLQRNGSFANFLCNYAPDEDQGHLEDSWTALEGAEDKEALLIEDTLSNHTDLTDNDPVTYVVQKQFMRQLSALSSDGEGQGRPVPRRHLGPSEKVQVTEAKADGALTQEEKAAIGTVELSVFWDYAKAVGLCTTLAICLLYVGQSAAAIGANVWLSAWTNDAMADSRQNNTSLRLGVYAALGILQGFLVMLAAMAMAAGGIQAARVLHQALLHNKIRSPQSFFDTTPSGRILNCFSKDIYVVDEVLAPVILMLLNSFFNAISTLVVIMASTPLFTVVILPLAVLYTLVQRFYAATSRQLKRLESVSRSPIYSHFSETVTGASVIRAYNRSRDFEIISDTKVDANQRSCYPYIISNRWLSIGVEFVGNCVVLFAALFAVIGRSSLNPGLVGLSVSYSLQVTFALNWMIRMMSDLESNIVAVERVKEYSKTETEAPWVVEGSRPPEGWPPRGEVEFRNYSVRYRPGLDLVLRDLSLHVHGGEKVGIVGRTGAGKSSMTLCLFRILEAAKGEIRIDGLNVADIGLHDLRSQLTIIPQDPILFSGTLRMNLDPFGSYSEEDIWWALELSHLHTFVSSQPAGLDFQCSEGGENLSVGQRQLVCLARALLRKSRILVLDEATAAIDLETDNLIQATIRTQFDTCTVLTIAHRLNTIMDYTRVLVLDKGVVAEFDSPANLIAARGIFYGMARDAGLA
# Sequence of Bile salt export pump (O95342 whole entry): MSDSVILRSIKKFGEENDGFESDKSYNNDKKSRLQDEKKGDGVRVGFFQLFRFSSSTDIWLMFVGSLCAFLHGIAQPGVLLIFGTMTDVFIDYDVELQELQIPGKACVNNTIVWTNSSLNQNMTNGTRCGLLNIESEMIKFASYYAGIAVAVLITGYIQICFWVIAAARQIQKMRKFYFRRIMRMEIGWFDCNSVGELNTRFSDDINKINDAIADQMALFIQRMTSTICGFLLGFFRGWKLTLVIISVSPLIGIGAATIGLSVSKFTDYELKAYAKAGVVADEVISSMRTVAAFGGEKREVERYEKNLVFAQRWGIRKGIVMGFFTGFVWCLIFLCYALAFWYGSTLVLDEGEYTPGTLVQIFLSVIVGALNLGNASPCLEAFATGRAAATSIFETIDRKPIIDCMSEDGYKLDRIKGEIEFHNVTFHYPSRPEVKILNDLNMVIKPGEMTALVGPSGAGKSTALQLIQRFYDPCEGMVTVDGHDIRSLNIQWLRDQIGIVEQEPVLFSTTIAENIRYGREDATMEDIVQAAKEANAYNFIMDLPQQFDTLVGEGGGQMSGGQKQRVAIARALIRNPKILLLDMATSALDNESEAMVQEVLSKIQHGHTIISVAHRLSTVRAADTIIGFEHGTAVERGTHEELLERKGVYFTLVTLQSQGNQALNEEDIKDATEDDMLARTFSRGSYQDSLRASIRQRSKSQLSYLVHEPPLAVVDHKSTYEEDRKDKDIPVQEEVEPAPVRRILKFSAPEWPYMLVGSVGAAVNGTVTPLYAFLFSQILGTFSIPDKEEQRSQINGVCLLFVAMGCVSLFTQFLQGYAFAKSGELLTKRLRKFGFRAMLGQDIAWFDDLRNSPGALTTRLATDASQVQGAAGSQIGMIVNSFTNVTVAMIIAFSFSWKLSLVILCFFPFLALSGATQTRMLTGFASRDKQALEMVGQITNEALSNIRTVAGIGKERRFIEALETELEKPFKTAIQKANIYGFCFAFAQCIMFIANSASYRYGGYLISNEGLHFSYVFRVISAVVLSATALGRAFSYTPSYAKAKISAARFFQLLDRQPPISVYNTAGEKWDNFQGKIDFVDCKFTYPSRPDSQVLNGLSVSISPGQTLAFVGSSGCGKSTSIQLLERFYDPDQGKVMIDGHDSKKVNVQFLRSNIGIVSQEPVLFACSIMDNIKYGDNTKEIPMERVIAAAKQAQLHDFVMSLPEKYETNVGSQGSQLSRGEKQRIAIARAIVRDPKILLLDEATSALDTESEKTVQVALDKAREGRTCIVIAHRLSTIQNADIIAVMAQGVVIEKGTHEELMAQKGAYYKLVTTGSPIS
smiles,measurement,setting,value
Cc1ccc(NC(=O)c2ccc(CN3CCN(C)CC3)cc2)cc1Nc1nccc(-c2cccnc2)n1 [IMATINIB],AUC at 24 h,[1],106 µM·h
same,concentration at 24 h,[2],4410 nM
same,IC50,[3],> 133 µM
same,IC50,[4],> 133 µM
same,IC50,[5],> 133 µM
CCCCC1=NC2(CCCC2)C(=O)N1Cc1ccc(-c2ccccc2-c2nnn[nH]2)cc1 [IRBESARTAN],Ratio,[6],0.301
same,concentration at 24 h,[7],2200 nM
same,IC50,[3],21.1 µM
same,Ratio,[8],0.026
same,IC50,[4],83.2 µM
same,Ratio,[9],0.104
same,AUC at 24 h,[10],52.9 µM·h
same,IC50,Bile salt export pump,7.31 µM
CO[C@H]1/C=C/O[C@@]2(C)Oc3c(C)c(O)c4c(O)c(c(/C=N/N5CCN(C)CC5)c(O)c4c3C2=O)NC(=O)/C(C)=C\C=C\[C@H](C)[C@H](O)[C@@H](C)[C@@H](O)[C@@H](C)[C@H](OC(C)=O)[C@@H]1C [RIFAMPIN],Ratio,[11],0.054
same,concentration at 24 h,[12],3730 nM
same,IC50,[3],69 µM
same,AUC at 24 h,[13],89.4 µM·h
same,Ratio,[14],0.147
same,IC50,[4],41.9 µM
same,Ratio,[15],0.07
same,Ratio,[16],0.089
same,IC50,[5],53 µM
Cc1cc2c(cc1CC(=O)c1sccc1S(=O)(=O)Nc1onc(C)c1Cl)OCO2 [SITAXENTAN],Ratio,[17],0.158
same,Ratio,[18],0.07
same,AUC at 24 h,[19],47.9 µM·h
same,IC50,[3],45.4 µM
same,IC50,[4],28.4 µM
same,IC50,Bile salt export pump,12.6 µM
same,Ratio,[20],0.044
same,concentration at 24 h,[21],2000 nM
CC[C@H]1OC(=O)[C@H](C)C(=O)[C@H](C)[C@@H](O[C@@H]2O[C@H](C)C[C@H](N(C)C)[C@H]2O)[C@](C)(OC)C[C@@H](C)C(=O)[C@H](C)[C@H]2N(CCCCn3cnc(-c4cccnc4)c3)C(=O)O[C@]12C [TELITHROMYCIN],Ratio,[22],0.136
same,IC50,[3],> 133 µM
same,IC50,[4],7.1 µM
same,Ratio,[23],0.193
same,concentration at 12 h,[24],964 nM
same,IC50,Bile salt export pump,5 µM
same,AUC at 12 h,[25],11.6 µM·h
same,IC50,[5],> 133 µM
